Reference: US20040038861A1, “Methods and compositions for normalizing lipid levels in mammalian tissues” (priority 2001, published 2004)
Read-outs that look alike come from different tables or passages of the source.

Key:
[1] = target: T1, murine ramp 1/C1ins− receptor (Mus musculus, UniProt Q60755+Q9WTJ5); test: Radioligand binding and displacement of [3H]amylin in L6 myoblasts co-transfected with murine ramp 1 and C1ins−; settings: 10 nM radioligand, FIG. 8D
T1 construct: expressed in transfected cells; host or cells: L6 myoblasts (ATCC), transient co-transfection of pcDNA3.1 plasmids
T1 sequence (Q60755 42-496 isoform Q60755-2 limits assumed): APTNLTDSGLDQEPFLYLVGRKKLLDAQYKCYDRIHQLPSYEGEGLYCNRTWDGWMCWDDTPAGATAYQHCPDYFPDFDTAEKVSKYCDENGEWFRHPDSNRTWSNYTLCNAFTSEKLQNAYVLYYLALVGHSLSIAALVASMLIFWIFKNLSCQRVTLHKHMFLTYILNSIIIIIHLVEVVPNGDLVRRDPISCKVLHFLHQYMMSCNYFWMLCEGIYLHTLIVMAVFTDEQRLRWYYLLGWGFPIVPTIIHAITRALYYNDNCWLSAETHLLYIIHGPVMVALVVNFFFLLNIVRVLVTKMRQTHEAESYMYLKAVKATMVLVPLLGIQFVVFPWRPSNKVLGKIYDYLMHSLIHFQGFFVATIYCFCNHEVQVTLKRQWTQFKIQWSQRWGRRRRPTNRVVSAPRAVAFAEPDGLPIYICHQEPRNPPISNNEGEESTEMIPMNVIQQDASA
T1 sequence (Q9WTJ5 27-148 partner): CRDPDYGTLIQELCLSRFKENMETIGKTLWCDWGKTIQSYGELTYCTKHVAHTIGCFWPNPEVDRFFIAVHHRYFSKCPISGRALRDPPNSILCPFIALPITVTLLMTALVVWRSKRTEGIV
Procedure: Transfection of L6 myoblasts and cos-7 cells, and analysis of radioligand binding. L6 myoblasts and cos-7 cells were obtained from ATCC. Both cell lines were cultered in Dulbecco's modified Eagle's medium (DMEM; Gibco/BRL, high glucose) supplemented with 10% fetal calf serum (Gibco/BRL, Gaithersburg, Md.), L-glutamine (2 mM), penicillin (100 U/ml; Sigma), streptomycin (100 mg/ml; Sigma), saline (0.85%), under 5% CO2/95% air at 37° C. The day before transfection, cells were trypsinised and seeded into six-well plates at a density of 2.9×10^5 cells/well in the same medium. For transfection, cells were incubated with a mixture comprising 1 μg each of Qiagen-purified (Qiagen, Valencia, Calif.) plasmids containing C1ins− with either ramp 1 or ramp 3, and Fugene reagent (6 μl; Boehringer Mannheim) in Opti-Mem I medium (Gibco/BRL). The complex was added with serum to cells, which were incubated for a further 48 h.
For binding experiments, radioligand (either alone or together with stated final concentrations of non-radiolabeled ligands) was dissolved in DMEM containing 0.1% BSA (binding buffer) for 1 h before binding experiments were performed. […] Cells were washed twice with this buffer, then incubated with 1 ml of the same plus radioligand for 4 h at room temperature (21° C.).

soleus muscle = test: Glucose transport (2-deoxy-D-glucose uptake) in incubated soleus muscle strips; assay type: cell-based, rat
Procedure: Soleus muscle preparation. All experiments were performed according to protocols approved by the Institutional Animal Ethics Committee. 5-6 week-old male Wistar rats (160 g) were kept on a 12:12-h light/dark cycle, and fed and watered ad libitum. Animals were anaesthetised with 50 mg/kg Nembutal (pentobarbitone sodium), then sacrificed by cervical dislocation. Soleus muscles were dissected under oxygenated KHB (118 mM NaCl, 4.75 mM KCl, 1.2 mM MgSO4, 24.8 mM NaHCO3, 1.2 mM KH2PO4, 2.54 mM CaCl2, 10 mM glucose, pH 7.4) and teased into halves, then incubated as described below.
Determination of rates of glucose transport in incubated soleus muscle strips. 4-5 muscle strips were added to each flask, which contained 10 ml DMEM. They were pre-incubated with hormones as indicated for 30 min at 30° C. in a shaking water bath, after which 5 μl of 2[^3H]DOG (0.5 μCi/ml) and 5 μl D[^14C(U)]sorbitol (0.05 μCi/ml) were added, then incubated for another 30 min; RIA grade BSA was added to 0.9% (w/v) to prevent non-specific binding of insulin to flasks. Following incubation, muscle strips were transferred to ice-cold KHB for 5-10 min to remove excess [^3H]DOG and [^14C]sorbitol. They were then blotted, frozen, tendons excised, then lyophilized for a further 48 h. Muscles were then weighed, transferred to scintillation vials and digested with 0.5 ml 1 M NaOH at 60° C. for 1 h. Scintillation fluid (4 ml) was added to each vial, and samples counted in a Beckman liquid scintillation spectrometer, preset to count ^14C and ^3H channels simultaneously. The amount of each isotope present in the samples was determined and used to calculate the extracellular space and the intracellular concentration of [^3H]DOG. The accumulation of intracellular [^3H]DOG, a measure of muscle glucose uptake, was calculated by subtracting the concentration of [^3H]DOG in the extracellular space from the corresponding total muscle [^3H]DOG]; extracellular [^3H]DOG was quantified by measuring the muscle concentration of [^14C]sorbitol.
Data analysis. One way ANOVA, Dunnett's Multiple Comparisons Test, and unpaired Student's t-tests were used to calculate the statistical significance of differences, as appropriate. Dose-response curves were fitted to a sigmoidal dose-response algorithm, as follows: Y=minimum+(maximum−minimum)/([…] log ^(EC50^−X), for 2-DOG-uptake; and by a four parameter logistic model, Y=minimum+(maximum−minimum)/(1+10 log ^(EC50^−X)Hill-Coefficient) for total glycogen and [^14C]glucose incorporation. Calculations were performed using Prism v2.0 (GraphPad Software, San Diego, Calif.) to derive values for half-maximal effective concentration (EC50). Displacement curves derived for competition of bound radioligand with cold ligand in transfected cells were calculated according to a one site competition fit using Prism v2.0.

[2] = target: binding sites for CGRP in rat liver membranes; settings: cited from earlier work
Wistar rats = test: Serum hormones and blood metabolites following acute CGRP infusion in anaesthetised normal-fed rats; assay type: in vivo, rat; settings: end vs commencement of infusion
Procedure: Surgery. Experiments were performed on male Wistar rats. Animals were randomly assigned to experimental groups as outlined below. Induction and maintenance of surgical anesthesia was by 3-5% halothane and 2L oxygen. An initial blood sample was taken from a tail artery for measurement of baseline levels of blood glucose and lactate, electrolyte, acid base and oxygen status and serum levels of free fatty acids, triglyceride and cholesterol. Immediately following this, the trachea was cannulated and the animal ventilated at 60-70 breaths.min-1 with air supplemented with O2. The respiratory rate and end-tidal pressure (10-15 cmH2O) were adjusted to maintain end-tidal CO2 at 35-40 mmHg. Body temperature was maintained at 37° C. throughout surgery and the experiment by a heating pad. The carotid artery and jugular vein were cannulated with a solid-state blood pressure transducer and a saline filled PE 50 catheter respectively. For the antagonist infusion studies, surgery was similar to above with the alteration being that both the carotid artery and jugular vein were cannulated with saline filled PE 50 catheters. Fluids (saline or hormone dissolved in saline) were delivered to the jugular vein with a Y-connector to join the two lines. The carotid artery line was connected to a blood pressure transducer. Blood samples were taken from this line at time zero (baseline reading), 30 minutes and every 20 minutes until the end of the experiment at 90 minutes.
Infusion. […] Blood glucose measurements were taken from tail capillaries at 5-minute intervals throughout the duration of the experiment. At the end of the infusion a terminal blood sample was taken by cardiac puncture and analysed as per the basal sample and also for various metabolites and hormones. Serum and plasma samples were stored at −80° C. until future analysis. Animals were killed by cervical dislocation and harvested tissues (brain, liver, kidney, soleus muscle, extensor digitorum longus muscle, left ventricle, retroperitoneal and epididymal fat pads) snap frozen in liquid N2 and stored at −80° C. until future analysis.

Q: For Rat amylin, which “specific binding of [3H]radioligand to L6 myoblasts co-transfected with ramp 1 and C1ins−” value [1] is on record?
A: Its value is “significant increases in specific binding”.

Q: What about the “decrease of insulin-stimulated glucose uptake” value (soleus muscle; amylin 10 nM, insulin 23.7 nM) of the same substance?
A: Its value is 31%.

Q: And the “2-DOG-uptake, insulin-stimulated” value (soleus muscle; amylin (10 nM) + insulin (23.7 nM))?
A: The value was 19.5±3.6 nmol/g dry-wt muscle/min.

Q: And the 2-DOG-uptake (soleus muscle; hormone alone (amylin 10 nM; insulin 23.7 nM), basal 8.8 ± 0.9)?
A: Its 2-DOG-uptake is 13.4 ± 2.4 nmol/g dry-wt muscle/min.

Q: With rat CGRP-1 as the substance, how does the Kd ([2]; read-out: Kd, high affinity binding site) read?
A: Its Kd is roughly 0.044 nM.

Q: What about the Kd ([2]; read-out: Kd, second binding site) of the same substance?
A: Its Kd is roughly 27 nM.

Q: And the “Change in [serum] Triglyceride” value (Wistar rats; CGRP 60 min, CGRP-(8-37) 90 min, control 0.2)?
A: Its value is -0.7 mmol/L.

Q: What about the “Change in [serum] FFA” value (Wistar rats; control −0.1) of the same substance?
A: The value was 0.4 mmol/L.

Q: And the “Change in Lactate” value (Wistar rats; heparinised whole blood, control 0.3)?
A: The value was 1.7 mmol/L.
